Where two headings read alike, the source gives them in different places.
Legend:
[1] = biological target: T1, VCAM-1 binding to α4β7-negative Th memory cells (Homo sapiens, UniProt P05556+P13612); experiment: VCAM-1 competition / receptor occupancy assay in human whole blood, α4β7-negative Th memory cells; format: cell-based
T1 construct: endogenous in cells
Procedure: Analyte Competition Assay in CD4+ Integrin α4+β7-Lo Memory T Cells
Receptor occupancy in primary cells was determined by measuring the amount of biotinylated human recombinant MAdCAM-1-FC or human recombinant VCAM-1-Fc bound to selected cell populations using flow cytometry. Human recombinant MAdCAM-1-FC or human recombinant VCAM-1-FC (R&D systems) were biotinylated using commercially available reagents and protocol (Pierce).
Whole blood was collected from human donors in sodium heparin tubes. A volume of 100 microL of blood was incubated with compound and 4 mM MnCL2 for 1 hour at room temperature. Cells were washed twice with 1 mL of 1X DPBS calcium magnesium free (CMF) (ThermoFisher Scientific) and resuspended in 100 microL of DPBS CMF.
Biotinylated human recombinant MAdCAM-1-Fc or VCAM-1-Fc were added at saturating concentration and incubated at room temperature for 1 hour. A volume of 2 mL of 1X BD FACS Lyse (BD Biosciences) was then added and the mixture was incubated for 8-12 minutes at room temperature in the dark to lyse red blood cells. Cells were washed with 1 mL stain buffer-FBS (BD Biosciences) and resuspended in 100 μl stain Buffer-FBS (BD Biosciences) containing 4 mM MnCl2. Biotinylated-rhMAdCAM-1 was applied at a saturating concentration of 1200 ng/mL to compete with test article binding and incubated at room temperature for 1 hour. Cells were then washed with 1 mL stain buffer-FBS and resuspended in […] stain buffer-FBS. The cells were incubated in the dark for 30 minutes at room temperature with 1 ul Streptavidin APC (Biolegend 0.2 mg/ml) and a panel of antibodies for the detection of memory T helper a4b7-positive cells subset. And amount of 5.0 ul each of the following antibodies were used; CD45 FITC (BioLegend 200 ug/ml), CD29 APC Cy7 (BioLegend 100 ug/ml), Integrin beta7 PE, (BioLegend concentration 50 μg/mL), CD49d V421 (BioLegend 50 μg/mL), CD3 V510 (BioLegend 30 μg/mL), CD4 PECy7 (BioLegend 100 μg/mL), CD45RO PerCP, BioLegend 200 μg/mL). The cells were then washed with stain-buffer-FBS and resuspended in 150 microL stain buffer-FBS for acquisition on the flow cytometer (BD FACSCanto™ flow cytometer and BDFACSDiva™ software). FACS data was acquire by electronic gating on the basis of forward versus side scatter, The cytometer was set to collect 20,000 events in each tube. Cell population were determined using the following markers, CD45+, CD3+, CD4+, CD45RO+, CD49d+, integrin b7, biotinylated ligands.
Compound receptor occupancy was defined as the decrease in the number of integrin β7+ or integrin β7-lo cells binding biotinylated rhMAdCAM-1 or rhVCAM-1, respectively.
Receptor occupancy was calculated with the following equation: 100−((% ligand-positive cells with compound/% ligand-positive cells DMSO)*100) In Vivo T Lymphocyte Trafficking Analysis in Mouse Model of Colitis

[2] = biological target: T2, recombinant integrin α4β7 (Homo sapiens, UniProt P13612+P26010, DEL724-798); experiment: Integrin α4β7—MAdCAM-1 ELISA competition assay; format: binding; conditions: read-out: ELISA α4β7 Assay IC50
T2 construct: purchased R&D Systems 5397-A3-050
T2 sequence (P13612 34-970 limits assumed): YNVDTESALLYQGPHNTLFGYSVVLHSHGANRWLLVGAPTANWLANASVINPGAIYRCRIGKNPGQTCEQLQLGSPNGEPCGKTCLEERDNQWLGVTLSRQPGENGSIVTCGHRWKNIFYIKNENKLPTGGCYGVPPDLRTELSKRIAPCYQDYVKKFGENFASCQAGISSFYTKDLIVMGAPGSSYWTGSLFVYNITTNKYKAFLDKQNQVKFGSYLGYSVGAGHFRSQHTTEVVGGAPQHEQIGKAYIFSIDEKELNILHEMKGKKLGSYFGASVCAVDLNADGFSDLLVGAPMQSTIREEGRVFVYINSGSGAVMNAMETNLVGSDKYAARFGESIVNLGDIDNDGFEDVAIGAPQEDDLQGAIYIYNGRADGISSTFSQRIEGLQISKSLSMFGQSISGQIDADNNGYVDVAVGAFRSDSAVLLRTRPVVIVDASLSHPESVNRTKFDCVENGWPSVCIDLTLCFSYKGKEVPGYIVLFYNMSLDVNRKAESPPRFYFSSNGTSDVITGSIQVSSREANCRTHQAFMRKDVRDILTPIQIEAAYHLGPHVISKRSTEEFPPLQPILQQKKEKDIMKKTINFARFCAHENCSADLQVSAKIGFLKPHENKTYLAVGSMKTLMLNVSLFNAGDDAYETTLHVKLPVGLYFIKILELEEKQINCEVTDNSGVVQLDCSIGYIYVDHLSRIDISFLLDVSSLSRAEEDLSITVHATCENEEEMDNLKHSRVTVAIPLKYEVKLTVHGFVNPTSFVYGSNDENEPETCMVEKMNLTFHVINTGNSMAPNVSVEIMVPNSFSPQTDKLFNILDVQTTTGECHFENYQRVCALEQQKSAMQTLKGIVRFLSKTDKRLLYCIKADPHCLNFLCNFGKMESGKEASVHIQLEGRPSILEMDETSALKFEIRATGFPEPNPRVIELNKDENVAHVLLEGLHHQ
T2 sequence (P26010 20-723 limits assumed): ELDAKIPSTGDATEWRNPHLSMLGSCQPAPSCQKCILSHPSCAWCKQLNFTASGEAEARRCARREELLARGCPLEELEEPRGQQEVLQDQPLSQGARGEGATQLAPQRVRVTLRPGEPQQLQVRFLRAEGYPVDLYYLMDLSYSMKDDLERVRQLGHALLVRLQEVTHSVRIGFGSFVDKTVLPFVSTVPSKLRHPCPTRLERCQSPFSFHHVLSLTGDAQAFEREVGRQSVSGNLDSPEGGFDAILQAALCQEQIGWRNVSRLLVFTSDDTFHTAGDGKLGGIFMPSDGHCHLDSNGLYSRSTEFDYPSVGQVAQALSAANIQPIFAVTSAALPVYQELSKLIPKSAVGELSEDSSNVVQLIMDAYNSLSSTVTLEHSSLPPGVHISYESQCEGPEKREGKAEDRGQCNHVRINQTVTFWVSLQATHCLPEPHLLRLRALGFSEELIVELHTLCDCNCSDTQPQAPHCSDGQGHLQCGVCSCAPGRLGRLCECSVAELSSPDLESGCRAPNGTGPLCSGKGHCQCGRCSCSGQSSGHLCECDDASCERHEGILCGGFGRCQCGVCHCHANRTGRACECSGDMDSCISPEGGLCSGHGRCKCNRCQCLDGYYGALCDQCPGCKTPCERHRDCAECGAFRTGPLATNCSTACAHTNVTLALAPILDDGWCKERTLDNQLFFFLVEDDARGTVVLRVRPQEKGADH

[3] = human whole blood, inhibition of VCAM binding to α4β7-negative Th memory cells, FACS, read-out: VCAM FACS α4+β7− Th mem

T1 sequence (P13612 34-1032): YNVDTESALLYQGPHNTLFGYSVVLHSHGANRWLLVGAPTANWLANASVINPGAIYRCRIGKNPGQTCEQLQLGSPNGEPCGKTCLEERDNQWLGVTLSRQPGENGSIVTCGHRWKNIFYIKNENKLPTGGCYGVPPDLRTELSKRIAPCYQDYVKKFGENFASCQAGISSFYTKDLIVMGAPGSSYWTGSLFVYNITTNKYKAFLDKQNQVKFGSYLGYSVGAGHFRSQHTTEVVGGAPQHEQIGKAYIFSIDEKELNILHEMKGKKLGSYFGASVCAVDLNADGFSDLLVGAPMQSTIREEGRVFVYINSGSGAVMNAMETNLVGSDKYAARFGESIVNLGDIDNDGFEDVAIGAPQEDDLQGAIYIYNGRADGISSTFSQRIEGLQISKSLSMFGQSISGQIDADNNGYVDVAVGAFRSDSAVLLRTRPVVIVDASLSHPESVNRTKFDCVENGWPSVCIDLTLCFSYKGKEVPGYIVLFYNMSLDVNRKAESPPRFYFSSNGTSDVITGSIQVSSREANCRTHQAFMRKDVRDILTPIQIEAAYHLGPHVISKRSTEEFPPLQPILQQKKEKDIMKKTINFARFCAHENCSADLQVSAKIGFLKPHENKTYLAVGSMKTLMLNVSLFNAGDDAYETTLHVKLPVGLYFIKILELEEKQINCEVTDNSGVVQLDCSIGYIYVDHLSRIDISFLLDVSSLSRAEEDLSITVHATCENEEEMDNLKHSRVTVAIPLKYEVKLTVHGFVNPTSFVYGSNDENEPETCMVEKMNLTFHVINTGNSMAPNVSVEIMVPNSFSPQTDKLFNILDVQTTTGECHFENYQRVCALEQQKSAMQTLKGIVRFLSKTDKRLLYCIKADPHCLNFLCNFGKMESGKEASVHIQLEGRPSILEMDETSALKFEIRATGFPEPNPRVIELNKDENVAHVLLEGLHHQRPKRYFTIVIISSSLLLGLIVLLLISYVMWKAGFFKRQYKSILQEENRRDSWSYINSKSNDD
T1 sequence (P05556 21-798): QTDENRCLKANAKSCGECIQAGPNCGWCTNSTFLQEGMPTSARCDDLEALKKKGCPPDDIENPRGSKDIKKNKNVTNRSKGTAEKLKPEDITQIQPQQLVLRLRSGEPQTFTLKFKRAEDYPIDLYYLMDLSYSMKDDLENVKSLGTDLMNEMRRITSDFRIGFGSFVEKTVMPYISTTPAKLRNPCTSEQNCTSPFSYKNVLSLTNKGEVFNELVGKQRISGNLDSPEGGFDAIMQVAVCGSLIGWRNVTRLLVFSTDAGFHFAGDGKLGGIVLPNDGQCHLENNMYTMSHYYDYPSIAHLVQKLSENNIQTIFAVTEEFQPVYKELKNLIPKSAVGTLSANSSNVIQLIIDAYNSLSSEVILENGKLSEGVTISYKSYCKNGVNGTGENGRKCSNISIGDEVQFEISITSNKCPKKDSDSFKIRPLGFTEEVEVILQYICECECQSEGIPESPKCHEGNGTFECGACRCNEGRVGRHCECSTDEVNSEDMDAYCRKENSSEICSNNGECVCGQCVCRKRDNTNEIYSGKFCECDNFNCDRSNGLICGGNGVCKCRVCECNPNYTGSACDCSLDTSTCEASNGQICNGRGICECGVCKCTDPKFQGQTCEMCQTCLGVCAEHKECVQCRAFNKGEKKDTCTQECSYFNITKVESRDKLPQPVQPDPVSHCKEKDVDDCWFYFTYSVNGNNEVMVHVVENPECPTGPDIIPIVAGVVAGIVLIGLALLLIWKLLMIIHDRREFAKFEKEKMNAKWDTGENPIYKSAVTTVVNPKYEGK

For CC(C)C[C@@H]1NC(=O)c2ccc(-c3ccc(N4CCN(CCC(=O)N5CCN(c6ccc(-c7ccc8cc7CNC(=O)[C@@H]7CCCN7[C@H](C(=O)NC(C)(C)C)[C@H](C)NC(=O)[C@H]([C@@H](C)O)NC(=O)[C@H](CC(=O)O)NC(=O)[C@H](CC(C)C)NC8=O)cc6)CC5)CC4)cc3)c(c2)CNC(=O)[C@@H]2CCCN2[C@H](C(=O)NC(C)(C)C)[C@H](C)NC(=O)[C@H]([C@@H](C)O)NC(=O)[C@H](CC(=O)O)NC1=O [Compound 482], the IC50 [1, 3] was ≥ 4000 nM.

CC(C)C[C@@H]1NC(=O)c2ccc(-c3ccc(N4CCN(C(=O)CCOCCOCCOCCOCCOCCOCCOCCOCCOCCOCCC(=O)N5CCN(c6ccc(-c7ccc8cc7CNC(=O)[C@@H]7CCCN7[C@H](C(=O)NC(C)(C)C)[C@H](C)NC(=O)[C@H]([C@@H](C)O)NC(=O)[C@H](CC(=O)O)NC(=O)[C@H](CC(C)C)NC8=O)cc6)CC5)CC4)cc3)c(c2)CNC(=O)[C@@H]2CCCN2[C@H](C(=O)NC(C)(C)C)[C@H](C)NC(=O)[C@H]([C@@H](C)O)NC(=O)[C@H](CC(=O)O)NC1=O [Compound 511] showed an IC50 [1, 3] of 20000 nM and an IC50 [2] of 11 nM.

For CC(C)C[C@@H]1NC(=O)C[C@H](CCCCN)N(C)C(=O)[C@H](CCCCNC(=O)CCCCCCCCC(=O)NCCCC[C@@H]2NC(=O)[C@@H]3CCCN3[C@H](C(=O)NC(C)(C)C)[C@H](C)NC(=O)[C@H]([C@@H](C)O)NC(=O)[C@H](CC(=O)O)NC(=O)[C@H](CC(C)C)NC(=O)C[C@H](CCCCN)N(C)C2=O)NC(=O)[C@@H]2CCCN2[C@H](C(=O)NC(C)(C)C)[C@H](C)NC(=O)[C@H]([C@@H](C)O)NC(=O)[C@H](CC(=O)O)NC1=O [Compound 530], the IC50 [1, 3] was > 4000 nM, the IC50 ([1]; whole blood from a single donor, FIG. 11, up to 4000 nM, read-out: IC50, VCAM binding) was ≥ 600 nM and the IC50 [2] was 5.3 nM.

With CC(C)C[C@@H]1NC(=O)c2ccc(-c3ccc(N4CCN(C(=O)c5ccccc5-c5ccccc5C(=O)N5CCN(c6ccc(-c7ccc8cc7CNC(=O)[C@@H]7CCCN7[C@H](C(=O)NC(C)(C)C)[C@H](C)NC(=O)[C@H]([C@@H](C)O)NC(=O)[C@H](CC(=O)O)NC(=O)[C@H](CC(C)C)NC8=O)cc6)CC5)CC4)cc3)c(c2)CNC(=O)[C@@H]2CCCN2[C@H](C(=O)NC(C)(C)C)[C@H](C)NC(=O)[C@H]([C@@H](C)O)NC(=O)[C@H](CC(=O)O)NC1=O [Compound 517] the IC50 [1, 3] was 607 nM and the IC50 [2] was 7.5 nM.

CC(C)C[C@@H]1NC(=O)c2ccc(-c3ccc(N4CCN(C(=O)C5(C(=O)N6CCN(c7ccc(-c8ccc9cc8CNC(=O)[C@@H]8CCCN8[C@H](C(=O)NC(C)(C)C)[C@H](C)NC(=O)[C@H]([C@@H](C)O)NC(=O)[C@H](CC(=O)O)NC(=O)[C@H](CC(C)C)NC9=O)cc7)CC6)Cc6ccccc6C5)CC4)cc3)c(c2)CNC(=O)[C@@H]2CCCN2[C@H](C(=O)NC(C)(C)C)[C@H](C)NC(=O)[C@H]([C@@H](C)O)NC(=O)[C@H](CC(=O)O)NC1=O [Compound 461] showed an IC50 [2] of 18 nM.

CC(C)C[C@@H]1NC(=O)c2ccc(-c3ccc(N4CCN(C(=O)c5cc(F)ccc5-c5ccc(F)cc5C(=O)N5CCN(c6ccc(-c7ccc8cc7CNC(=O)[C@@H]7CCCN7[C@H](C(=O)NC(C)(C)C)[C@H](C)NC(=O)[C@H]([C@@H](C)O)NC(=O)[C@H](CC(=O)O)NC(=O)[C@H](CC(C)C)NC8=O)cc6)CC5)CC4)cc3)c(c2)CNC(=O)[C@@H]2CCCN2[C@H](C(=O)NC(C)(C)C)[C@H](C)NC(=O)[C@H]([C@@H](C)O)NC(=O)[C@H](CC(=O)O)NC1=O [Compound 475] showed an IC50 [2] of 11 nM.

Source: patent publication US11713338B2, “Cyclic peptides multimers targeting α-4-β-7 integrin” (priority 2016, dated 2023)
